From patent publication US4229533A, “Method for producing antibiotic C-15003 P-4” (priority 1977, dated 1980) come the findings set out here.

Data set [1] deals with Helminthosporium sigmoidium var. irregulare. In words: Activity against microorganisms. The data set is classed as cell-based.
A further data set has as its system Bacillus subtilis. In words: Antimicrobial activity by the paper disc method. The data set is classed as cell-based. The conditions noted are these: 8 mm, 0.02 ml of a 300 μg/ml solution, trypticase-soy agar. As to the method:
(§1) With trypticase-soy agar (BBL) as an assay medium, the inhibitory concentrations against the microorganisms described below were investigated by the paper disc method. Thus, filter-paper discs (Toyo Seisakusho, thin-type, 8 mm in dia.) each impregnated with 0.02 ml of a 300 μg/ml solution of P-4 were placed on agar plates respectively inoculated with the microorganisms described below. P-4 had no activity against the following bacteria. Escherichia coli, Proteus vulgaris, Proteus mirabilis, Pseudomonas aeruginosa, Staphylococcus aureus, Bacillus subtilis, Bacillus cereus, Klebsiella pneumoniae, Serratia marcescens and Mycobacterium avium

The next data set relates to Proteus vulgaris. Put plainly: Antimicrobial activity by the paper disc method. The format is cell-based. The settings on record: 8 mm, 0.02 ml of a 300 μg/ml solution, trypticase-soy agar. Here is the method: as §1
In another data set the test system is Staphylococcus aureus. Put plainly: Antimicrobial activity by the paper disc method. The settings on record: 8 mm, 0.02 ml of a 300 μg/ml solution, trypticase-soy agar. The format is cell-based. Here is the method: as §1
A further data set has as its system Escherichia coli. Put plainly: Antimicrobial activity by the paper disc method. The data set is classed as cell-based. The conditions noted are these: 8 mm, 0.02 ml of a 300 μg/ml solution, trypticase-soy agar. Here is the method:
as §1

The next data set relates to Pseudomonas aeruginosa. Put plainly: Antimicrobial activity by the paper disc method. The data set is classed as cell-based. The conditions noted are these: 8 mm, 0.02 ml of a 300 μg/ml solution, trypticase-soy agar. Here is the method:
as §1

A further data set has as its system Bacillus cereus. Put plainly: Antimicrobial activity by the paper disc method. The format is cell-based. The conditions noted are these: 8 mm, 0.02 ml of a 300 μg/ml solution, trypticase-soy agar. As to the method: as §1
In the next data set the test system is Mycobacterium avium. In words: Antimicrobial activity by the paper disc method. The conditions noted are these: 8 mm, 0.02 ml of a 300 μg/ml solution, trypticase-soy agar. The data set is classed as cell-based. Here is the method: as §1
A further data set has as its system Proteus mirabilis. In words: Antimicrobial activity by the paper disc method. The data set is classed as cell-based. The settings on record: 8 mm, 0.02 ml of a 300 μg/ml solution, trypticase-soy agar. As to the method:
as §1

Another data set relates to Serratia marcescens. Put plainly: Antimicrobial activity by the paper disc method. The data set is classed as cell-based. The conditions noted are these: 8 mm, 0.02 ml of a 300 μg/ml solution, trypticase-soy agar. As to the method:
as §1

The test system of the next data set is Klebsiella pneumoniae. In words: Antimicrobial activity by the paper disc method. The data set is classed as cell-based. The conditions noted are these: 8 mm, 0.02 ml of a 300 μg/ml solution, trypticase-soy agar. As to the method:
as §1

A further data set relates to Trichophyton rubrum. Put plainly: Activity against microorganisms. The data set is classed as cell-based.
The next data set concerns Cochlioborus miyabeanus. Put plainly: Activity against microorganisms. The data set is classed as cell-based.
The next data set relates to P388 leukemia. Put plainly: Antitumour activity upon P388 leukemia in mice. The data set is classed as in vivo, mouse. The conditions noted are these: 1×10^6 cells/animal i.p., 0.00625 mg/kg/day intraperitoneally for 9 consecutive days. The source says: The therapeutic effects of P-4 (dosed intraperitoneally for 9 consecutive days) upon P388 leukemia in mice (1×10^6 cells/animal, mouse, intraperitoneally transplanted) was investigated.

For another data set, the system named is Sclerotinia screrotiorum. In words: Activity against microorganisms. The data set is classed as cell-based.
The test system of a further data set is Fusicladium levieri. Put plainly: Activity against microorganisms. The format is cell-based.
Another data set deals with Rhodotorula ruba. In words: Activity against microorganisms. The format is cell-based.
The next data set relates to Pellicularia sasakii. Put plainly: Activity against microorganisms. The format is cell-based.
A short description of data set [2]: Preliminary acute toxicity test with mice. The conditions noted are these: mouse, in vivo, ip, intraperitoneal. An excerpt: In a preliminary acute toxicity test with mice as test animals, which involved intraperitoneal injections of P-4.
A further data set concerns Pyricularia oryzae. The format is cell-based.
The next data set deals with Cryptococcus neoformans. In words: Activity against microorganisms. The format is cell-based.
The nature of another data set: Solubility. The format is physicochemical.

A word on the LD50: it is the dose expected to kill half of the subjects tested. Higher therefore signals lower toxicity. In the case of `COc1cc2cc(c1Cl)N(C)C(=O)CC(OC(=O)CC(C)C)C1(C)OC1C(C)C1CC(O)(NC(=O)O1)C(OC)C=CC=C(C)C2` (stereo not drawn) [P-4], the “activity against Helminthosporium sigmoidium var. irregulare” value in data set [1] is recorded as “had the activity”. In the data set on Bacillus subtilis, the “activity against Bacillus subtilis” value is “no activity”. The “activity against Proteus vulgaris” value in the data set with Proteus vulgaris is recorded as “no activity”. In the data set on Staphylococcus aureus, the “activity against Staphylococcus aureus” value was “no activity”. In addition, the “activity against Escherichia coli” value with Escherichia coli is reported as “no activity”. The “activity against Pseudomonas aeruginosa” value in the data set with Pseudomonas aeruginosa was “no activity”. The “activity against Bacillus cereus” value with Bacillus cereus was “no activity”. The “activity against Mycobacterium avium” value in the data set on Mycobacterium avium is on record as “no activity”. The “activity against Proteus mirabilis” value in the data set on Proteus mirabilis is reported as “no activity”. Also, the “activity against Serratia marcescens” value with Serratia marcescens is “no activity”. The “activity against Klebsiella pneumoniae” value in the data set with Klebsiella pneumoniae was “no activity”. For the same molecule, the “activity against Trichophyton rubrum” value with Trichophyton rubrum was “had the activity”. The “activity against Cochlioborus miyabeanus” value in the data set on Cochlioborus miyabeanus is “had the activity”. In the data set on P388 leukemia, the life-span-extending ratio amounted to 180%. For the same molecule, the “activity against Sclerotinia screrotiorum” value with Sclerotinia screrotiorum is on record as “had the activity”. Moreover, the “activity against Fusicladium levieri” value in the data set on Fusicladium levieri was “had the activity”. Also, the “activity against Rhodotorula ruba” value in the data set on Rhodotorula ruba is “had the activity”. Besides, the “activity against Pellicularia sasakii” value with Pellicularia sasakii was “had the activity”. Moreover, the LD50 in data set [2] is > 0.313 mg/kg. Besides, in the data set with Pyricularia oryzae, the “activity against Pyricularia oryzae” value is “had the activity”. Besides, the “activity against Cryptococcus neoformans” value in the data set on Cryptococcus neoformans is reported as “had the activity”. The Solubility entry is “Sparingly soluble” in the data set “Solubility” (in benzene, ether); “Soluble” in the data set “Solubility” (in chloroform, ethyl acetate, acetone, ethanol, methanol, pyridine, tetrahydrofuran, dimethylsulfoxide); “Insoluble” in “Solubility” (in petr. ether, hexane, water).
